Measured values reported in patent US12622899B2 (PureTech LYT 100, Inc., priority 2018, dated 2026).

How the values were obtained:
[1] = tested on: patients with Idiopathic Pulmonary Fibrosis (IPF); assay: IPF trial Part A: clinical laboratory parameters, liver; type: in vivo, human
healthy older adults = assay: Study LYT-100-2021-103 Part 3 (Example 2): safety and tolerability vs placebo; conditions: for Abdominal Pain/Discomfort/Distension, adverse events / Diarrhea, adverse events / Dizziness, adverse events / Dyspepsia, adverse events / GI Disorders, adverse events / Headache, adverse events / Nausea, adverse events / Nervous System Disorders, adverse events / Vomiting, adverse events: fed, N=13
Description: Only subjects who met all the applicable inclusion and none of the applicable exclusion criteria were randomized.
Safety and tolerability were assessed by monitoring AEs, physical examination, vital signs, 12-lead ECGs, clinical laboratory values (hematology panel, multiphasic chemistry panel and urinalysis), and review of concomitant treatments/medication use.

[2] = tested on: patients with Idiopathic Pulmonary Fibrosis (IPF); assay: IPF trial Part A (26-week double-blind): efficacy, FVC and FVCpp, time to progression; type: in vivo, human; conditions: for FVC, Bayesian Posterior Mean Difference vs. Placebo / FVC, Frequentist Adjusted Mean Difference vs. Placebo / FVCpp, Bayesian Posterior Mean comparison vs. Placebo / FVCpp, Frequentist Adjusted Mean comparison vs. Placebo / Treatment effect, FVC, versus placebo / Treatment effect, FVCpp, versus placebo: 26 weeks
Description: The primary objective was to determine the dose(s) to carry into Phase 3. […] Patients were randomized to one of the four treatments in a 1:1:1:1 ratio and stratified based on prior exposure to nintedanib (<6 months) versus nintedanib-naïve patients. Patients who completed the Double-blind Treatment Period (Part A) were offered participation in the Long-term Extension (Part B). […] For patients who participated in Part B, the follow-up was conducted at the end of Part B. A graphical illustration of an embodiment of the trial design is provided as FIG. 24B.
Doses were adjusted according to safety and tolerability to avoid toxicity.
Note that, for all treatment groups, the first 7 days of treatment, one capsule was taken TID., Day 8 through Day 14, two capsules TID., and Day 15 forward, 3 capsules TID.
Weekly home FVC was assessed with an individual spirometer, which was supplied to each patient. The site used its own equipment for in-clinic FVC assessments. Spirometry measurements were performed according to the American Thoracic Society/European Respiratory Society (“An Official American Thoracic Society and European Respiratory Society Technical Statement Technical Statement” Am J Respir Crit Care Med. 2019; 200(8):e71-e83) and the study specific Pulmonary Function Manual, at timepoints specified in the Schedule of Assessments. Spirometry was conducted while the patient was in a seated position. The test was done in order to achieve three acceptable FVC measurements (three curves to be provided), and the best result selected according to the guidelines. The best of three efforts was defined as the highest FVC, obtained on any of the three blows meeting the ATS/ERS/JRS/ALAT 2019 criteria (Graham et al, 2019) with preferably a maximum of eight attempts.
Pulmonary function was measured in a standardized manner and results transmitted electronically during the visit immediately after performing the spirometry and evaluated by a central reader. In case the acceptability and repeatability criteria as specified by ATS/ERS/JRS/ALAT guidelines were not met, a repeat spirometry was performed during the same visit.
The primary efficacy endpoint was the rate of decline in FVC mL over 26 weeks. In addition, decline in FVC % predicted from baseline to Week 26 and by >10% and >5% was assessed.
The secondary endpoint was comparison of FVC % predicted change from baseline to Week 26.
The following parameters were measured or calculated as part of the spirometry assessment: • FVC (mL) and FVC % predicted (FVCpp) • FEV1 (mL) and percent predicted forced expiratory volume in 1 second (FEV1% p) • FEV1/FVC ratio • Forced expiratory flow between 25% and 75% of exhaled volume (FEF25-75) The ‘2012 Global Lung Function Initiative Equations’ was used to calculate the predicted values (Quanjer et al, “Multi-ethnic reference values for spirometry for the 3-95 year age range: the global lung function 2012 equations: Report of the Global Lung Function Initiative (GLI), ERS Task Force to establish improved Lung Function Reference Values.,” Eur Respir J, vol. 40(6), pp. 1324-1343, 2012). […]

[3] = Part 3 safety population, LYT-100 550 mg TID Days 1-3 then 824 mg TID Days 4-6, N=24
[4] = deupirfenidone 550 mg TID, N=65
[5] = deupirfenidone 825 mg TID, N=63
[6] = deupirfenidone 825 mg TID, N=63, listed as Deupirfenidone
[7] = deupirfenidone 825 mg TID, N=63, listed as deupirfenidone

## [2H]C([2H])([2H])c1ccc(=O)n(-c2ccccc2)c1 [LYT-100, 5-(methyl-d3)-1-phenylpyridin-2-(1H)-one]
[1]; IPF Part A
  liver enzyme elevations, drug-induced liver injury: no instances of drug-induced liver injury or Hy's Law
[1]; TID Pooled (N = 129), N1 120
  Alanine Aminotransferase (U/L) at Worst Post-Baseline, 3-5 ULN: 2 (1.7) n (%)
  Alanine Aminotransferase (U/L) at Worst Post-Baseline, 5-8 ULN: 1 n (%)
  Alanine Aminotransferase (U/L) at Worst Post-Baseline, >8 ULN: 2 n (%)
  Alanine Aminotransferase (U/L) at Worst Post-Baseline, Total (>3 ULN): 5 (4.2) n (%)
  Alanine Aminotransferase or Aspartate Aminotransferase (U/L) at Worst Post-Baseline, 3-5 ULN: 2 (1.7) n (%)
  Alanine Aminotransferase or Aspartate Aminotransferase (U/L) at Worst Post-Baseline, 5-8 ULN: 1 n (%)
  Alanine Aminotransferase or Aspartate Aminotransferase (U/L) at Worst Post-Baseline, >8 ULN: 2 n (%)
  Alanine Aminotransferase or Aspartate Aminotransferase (U/L) at Worst Post-Baseline, Total (>3 ULN): 5 (4.2) n (%)
  Aspartate Aminotransferase (U/L) at Worst Post-Baseline, 3-5 ULN: 2 (1.7) n (%)
  Aspartate Aminotransferase (U/L) at Worst Post-Baseline, 5-8 ULN: 0 n (%)
  Aspartate Aminotransferase (U/L) at Worst Post-Baseline, >8 ULN: 2 n (%)
  Aspartate Aminotransferase (U/L) at Worst Post-Baseline, Total (>3 ULN): 4 (3.3) n (%)
Healthy older adults; Part 3
  deaths or SAEs: No deaths or SAEs
Healthy older adults; Part 3, LYT-100 550 mg TID
  Abdominal Pain/Discomfort/Distension, adverse events: 0 n (%)
  Diarrhea, adverse events: 1 (4.2) n (%)
  Dizziness, adverse events: 1 (4.2) n (%)
  Dyspepsia, adverse events: 1 (4.2) n (%)
  GI Disorders, adverse events: 2 (8.3) n (%)
  Headache, adverse events: 3 (12.5) n (%)
  Nausea, adverse events: 0 n (%)
  Nervous System Disorders, adverse events: 3 (12.5) n (%)
  Vomiting, adverse events: 0 n (%)
Healthy older adults; Part 3, LYT-100 824 mg TID, 3 treatment days
  tolerability: well tolerated
Healthy older adults; Part 3, LYT-100 824 mg TID
  Abdominal Pain/Discomfort/Distension, adverse events: 0 n (%)
  Diarrhea, adverse events: 0 n (%)
  Dizziness, adverse events: 0 n (%)
  Dyspepsia, adverse events: 0 n (%)
  GI Disorders, adverse events: 0 n (%)
  Headache, adverse events: 0 n (%)
  Nausea, adverse events: 0 n (%)
  Nervous System Disorders, adverse events: 0 n (%)
  Vomiting, adverse events: 0 n (%)
Healthy older adults; Part 3, LYT-100 group N=24
  subjects discontinued due to a TEAE (all Covid-19): 3 (12.5%) n (%)
  subjects with at least one TEAE: 8 (33.3%) n (%)
  subjects with mild TEAEs: 7 (29.2%) n (%)
Healthy older adults; [3]
  COVID-19 TEAE: 4 (16.7) n (%)
  Headache TEAE: 3 (12.5) n (%)
[2]; deupirfenidone 550 mg TID
  FVC, Bayesian Posterior Mean Difference vs. Placebo: 34.1 mL
  FVC, Frequentist Adjusted Mean Difference vs. Placebo: 31.8 mL
  FVCpp, Bayesian Posterior Mean comparison vs. Placebo: 1.47
  FVCpp, Frequentist Adjusted Mean comparison vs. Placebo: 1.62
  Treatment effect, FVC, versus placebo: 28.3%
  Treatment effect, FVCpp, versus placebo: 47.2%
  Cohen's D, FVC: 0.14
  Cohen's D, FVCpp: 0.23
[2]; deupirfenidone 825 mg TID
  FVC, Bayesian Posterior Mean Difference vs. Placebo: 90.9 mL
  FVC, Frequentist Adjusted Mean Difference vs. Placebo: 91.0 mL
  FVCpp, Bayesian Posterior Mean comparison vs. Placebo: 2.85
  FVCpp, Frequentist Adjusted Mean comparison vs. Placebo: 3.00
  Treatment effect, FVC, versus placebo: 80.9%
  Treatment effect, FVCpp, versus placebo: 87.5%
  Cohen's D, FVC: 0.40
  Cohen's D, FVCpp: 0.44
[2]; deupirfenidone 825 mg TID, listed as Deupirfenidone
  Treatment effect, FVC, versus placebo: 80.9%
[2]; deupirfenidone 825 mg TID, listed as deupirfenidone
  Treatment effect, FVC, versus placebo: 80.9%
[2]; LYT-100 825 mg TID (FIG. 45)
  6-month FVC decline compared with healthy older adults: in line with that seen for healthy adults >60 years
[2]; [4]
  Change from Baseline in FVC over 26 Weeks, Bayesian Posterior Mean (SE): −76.7 (28.60) mL
  Change from Baseline in FVC over 26 Weeks, Frequentist Adjusted Mean (SE): −80.7 (29.32) mL
  Change from Baseline in FVCpp over 26 Weeks, Bayesian Posterior Mean (SE): −1.80 (0.88)
  Change from Baseline in FVCpp over 26 Weeks, Frequentist Adjusted Mean (SE): −1.81 (0.886)
[2]; [5]
  Change from Baseline in FVC over 26 Weeks, Bayesian Posterior Mean (SE): −19.9 (28.29) mL
  Change from Baseline in FVCpp over 26 Weeks, Bayesian Posterior Mean (SE): −0.42 (0.88)
[2]; [6]
  Change from Baseline in FVC over 26 Weeks, Frequentist Adjusted Mean (SE): −21.5 (28.86) mL
  Change from Baseline in FVCpp over 26 Weeks, Frequentist Adjusted Mean (SE): −0.43 (0.872)
[2]; [7]
  Change from Baseline in FVC over 26 Weeks, Frequentist Adjusted Mean (SE): -21.5 mL
  Change from Baseline in FVCpp over 26 Weeks, Frequentist Adjusted Mean (SE): −0.43
